The text below walks through data of patent US10759783B2, “Biaryl inhibitors of Bruton'S tyrosine kinase” (BIOGEN MA INC., priority 2013, dated 2020).

Usually IC50 stands for the midpoint of a concentration-inhibition curve.

Some results are limits rather than exact numbers.

T1 sequence (Q06187 whole entry): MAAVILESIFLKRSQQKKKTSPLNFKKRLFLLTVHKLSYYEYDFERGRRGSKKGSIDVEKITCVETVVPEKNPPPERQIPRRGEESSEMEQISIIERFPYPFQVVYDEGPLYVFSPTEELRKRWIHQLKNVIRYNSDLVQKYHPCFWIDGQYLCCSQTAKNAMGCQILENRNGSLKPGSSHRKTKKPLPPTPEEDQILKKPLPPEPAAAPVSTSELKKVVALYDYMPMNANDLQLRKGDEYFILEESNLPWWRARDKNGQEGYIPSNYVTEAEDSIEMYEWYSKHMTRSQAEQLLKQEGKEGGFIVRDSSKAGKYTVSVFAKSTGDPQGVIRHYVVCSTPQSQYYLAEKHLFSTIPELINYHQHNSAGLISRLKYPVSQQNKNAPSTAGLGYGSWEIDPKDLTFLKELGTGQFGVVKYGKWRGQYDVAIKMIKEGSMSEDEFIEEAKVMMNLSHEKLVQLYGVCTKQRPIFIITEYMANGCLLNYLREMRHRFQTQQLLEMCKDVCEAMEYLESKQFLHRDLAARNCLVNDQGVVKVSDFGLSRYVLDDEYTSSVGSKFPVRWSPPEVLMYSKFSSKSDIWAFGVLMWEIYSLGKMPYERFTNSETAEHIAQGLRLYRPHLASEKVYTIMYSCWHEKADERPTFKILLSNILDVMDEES

The test has as its target T1, BTK enzyme (Homo sapiens, UniProt Q06187).
T1 construct: purchased Upstate 14-552
As to the kind of experiment: In vitro BTK kinase assay: BTK-POLYGAT-LS assay. Type of test: biochemical. As to conditions: ATP 10 μM, read-out: IC50 (10uMATP). As for the experimental part:
The purpose of the BTK in vitro assay is to determine compound potency against BTK through the measurement of IC50. […] For a typical assay, a 24 μL aliquot of a ATP/peptide master mix (final concentration; ATP 10 μM, polyGAT 100 nM) in kinase buffer (10 mM Tris-HCl pH 7.5, 10 mM MgCl2, 200 μM Na3PO4, 5 mM DTT, 0.01% Triton X-100, and 0.2 mg/ml casein) is added to each well. […] The assay is incubated for 30 minutes before being stopped with 28 μL of a 50 mM EDTA solution. […] The plate is covered and incubated for 45 minutes at room temperature.
As for `CC(=O)Nc1cc(-c2ccc(CNC(=O)c3cc4c(s3)CCCC4)c(C)c2)ncn1` [Example I-143, N-(4-(6-acetamidopyrimidin-4-yl)-2-methylbenzyl)-4,5,6,7-tetrahydrobenzo[b]thiophene-2-carboxamide], the IC50 was < 10 nM.
For the compound `Cc1cc(-c2ccnc(Nc3cnn(C)c3)n2)ccc1CNC(=O)c1cc(C(C)(C)C)on1` [Example I-153, 5-(tert-butyl)-N-(2-methyl-4-(2-((1-methyl-1H-pyrazol-4-yl)amino)pyrimidin-4-yl)benzyl)isoxazole-3-carboxamide], the IC50 was < 10 nM.
The same measure for `Cc1cc(-c2cc(Nc3nnn(C)n3)ncn2)ccc1CNC(=O)c1cnc(C(C)(C)C)s1` [Example I-68, 2-(tert-butyl)-N-(2-methyl-4-(6-((2-methyl-2H-tetrazol-5-yl)amino)pyrimidin-4-yl)benzyl)thiazole-5-carboxamide]: 10 to 99 nM; for `Cc1cc(-c2ccnc(Nc3cn(C)nn3)n2)ccc1CNC(=O)c1cnc(C(C)(C)C)s1` [Example I-58, 2-(tert-butyl)-N-(2-methyl-4-(2-((1-methyl-1H-1,2,3-triazol-4-yl)amino)pyrimidin-4-yl)benzyl)thiazole-5-carboxamide]: 10 to 99 nM; for `Cc1cc(-c2ccnc(N)n2)ccc1CNC(=O)c1cnc(C(F)(F)F)s1` [Example I-83, N-(4-(2-aminopyrimidin-4-yl)-2-methylbenzyl)-2-(trifluoromethyl)thiazole-5-carboxamide]: 100 to 999 nM.
As for `CNc1nccc(-c2ccc(CNC(=O)c3cnc(C(C)(C)C)s3)c(C)c2)n1` [Example I-33, 2-(tert-butyl)-N-(2-methyl-4-(2-(methylamino)pyrimidin-4-yl)benzyl)thiazole-5-carboxamide], the IC50 fell in the range of 100 to 999 nM.
The same measure for `Cc1cc(-c2ccnc(N)n2)ccc1CNC(=O)c1cc2n(n1)CCNC2` [Example I-76, N-(4-(2-aminopyrimidin-4-yl)-2-methylbenzyl)-4,5,6,7-tetrahydro pyrazolo[1,5-a]pyrazine-2-carboxamide]: > 10000 nM; for `Nc1nccc(-c2ccc3c(c2)CCCC3NC(=O)c2cc3c(s2)CCCC3)n1` (stereo not shown) [Example I-137, N-(6-(2-aminopyrimidin-4-yl)-1,2,3,4-tetrahydronaphthalen-1-yl)-4,5,6,7-tetrahydrobenzo[b]thiophene-2-carboxamide]: < 10 nM.
The same measure for `Cc1cc(-c2nc(Nc3cnn(C)c3)ncc2C)ccc1CNC(=O)c1cnc(C(C)(C)C)s1` [Example I-112, 2-(tert-butyl)-N-(2-methyl-4-(5-methyl-2-((1-methyl-1H-pyrazol-4-yl)amino)pyrimidin-4-yl)benzyl)thiazole-5-carboxamide]: < 10 nM; for `Cc1cc(-c2ccnc(N)n2)ccc1CNC(=O)c1cc2c(s1)CCOC2` [Example I-139, N-(4-(2-aminopyrimidin-4-yl)-2-methylbenzyl)-6,7-dihydro-4H-thieno[3,2-c]pyran-2-carboxamide]: 10 to 99 nM; for `Cc1cc(-c2ccnc(Nc3ccccn3)n2)ccc1CNC(=O)c1cnc(C(C)(C)C)s1` [Example I-60, 2-(tert-butyl)-N-(2-methyl-4-(2-(pyridin-2-ylamino)pyrimidin-4-yl)benzyl)thiazole-5-carboxamide]: 10 to 99 nM.
The same measure for `Cn1cc(Nc2cc(-c3ccc4c(c3)CCCC4NC(=O)c3cnc(C(C)(C)C)s3)ncn2)cn1` (stereo not shown) [Example I-92, 2-(tert-butyl)-N-(6-(6-((1-methyl-1H-pyrazol-4-yl)amino)pyrimidin-4-yl)-1,2,3,4-tetrahydronaphthalen-1-yl)thiazole-5-carboxamide]: 10 to 99 nM; for `Cc1cc(-c2ccnc(Nc3conc3C)n2)ccc1CNC(=O)c1cnc(C(C)(C)C)s1` [Example I-57, 2-(tert-butyl)-N-(2-methyl-4-(2-((3-methylisoxazol-4-yl)amino)pyrimidin-4-yl)benzyl)thiazole-5-carboxamide]: < 10 nM.
On to `Cc1cc(-c2ccnc(NCc3ccncc3)n2)ccc1CNC(=O)c1cnc(C(C)(C)C)s1` [Example I-32, 2-(tert-butyl)-N-(2-methyl-4-(2-((pyridin-4-ylmethyl)amino)pyrimidin-4-yl)benzyl)thiazole-5-carboxamide], for which the IC50 is 100 to 999 nM.
The same measure for `Cc1cc(-c2cc(Nc3ccn(CCO)n3)ncn2)ccc1CNC(=O)c1cnc(C(C)(C)C)s1` [Example I-151, 2-(tert-butyl)-N-(4-(6-((1-(2-hydroxyethyl)-1H-pyrazol-3-yl)amino)pyrimidin-4-yl)-2-methylbenzyl)thiazole-5-carboxamide]: < 10 nM.
`Cc1cc(-c2ccnc(NC(C)C)n2)ccc1CNC(=O)c1cnc(C(C)(C)C)s1` [Example I-35, 2-(tert-butyl)-N-(4-(2-(isopropylamino)pyrimidin-4-yl)-2-methylbenzyl)thiazole-5-carboxamide]: the IC50 fell in the range of 1000 to 10000 nM.
The same measure for `Cc1cc(-c2ccnc(Nc3cnn(C)c3)n2)cnc1CNC(=O)c1cc2c(s1)CCOC2` [Example I-101, N-((3-methyl-5-(2-((1-methyl-1H-pyrazol-4-yl)amino)pyrimidin-4-yl)pyridin-2-yl)methyl)-6,7-dihydro-4H-thieno[3,2-c]pyran-2-carboxamide]: 10 to 99 nM.
Turning to `Cn1cc(Nc2nccc(-c3ccc4c(c3)COCC4NC(=O)c3cnc(C(C)(C)C)s3)n2)cn1` (stereo not shown) [Example I-98, 2-(tert-butyl)-N-(7-(2-((1-methyl-1H-pyrazol-4-yl)amino)pyrimidin-4-yl)isochroman-4-yl)thiazole-5-carboxamide], the IC50 was in the range of 10 to 99 nM.
The same measure for `Cc1cc(-c2ccnc(N)n2)ccc1CNC(=O)c1cc2c(s1)CCNC2` [Example I-140, N-(4-(2-aminopyrimidin-4-yl)-2-methylbenzyl)-4,5,6,7-tetrahydrothieno[3,2-c]pyridine-2-carboxamide]: 10 to 99 nM; for `Cc1cc(-c2cc(Nc3cc4n(n3)CCN(C)C4)ncn2)ccc1CNC(=O)c1cnn(C(C)(C)C)c1` [Example I-150, 1-(tert-butyl)-N-(2-methyl-4-(6-((5-methyl-4,5,6,7-tetrahydropyrazolo[1,5-a]pyrazin-2-yl)amino)pyrimidin-4-yl)benzyl)-1H-pyrazole-4-carboxamide]: < 10 nM; for `Cc1cc(-c2ccnc(Nc3ccc(N4CCN(C)CC4)cn3)n2)ccc1CNC(=O)c1cc2c(s1)CCNC2` [Example I-119, N-(2-methyl-4-(2-((5-(4-methylpiperazin-1-yl)pyridin-2-yl)amino)pyrimidin-4-yl)benzyl)-4,5,6,7-tetrahydrothieno[3,2-c]pyridine-2-carboxamide]: 100 to 999 nM.
The same measure for `Cc1cc(-c2ccnc(N)n2)ccc1CNC(=O)c1ccc2c(c1)CCNC2` [Example I-77, N-(4-(2-aminopyrimidin-4-yl)-2-methylbenzyl)-1,2,3,4-tetrahydroisoquinoline-6-carboxamide]: 1000 to 10000 nM; for `Cc1cc(-c2ccnc(Nc3cnn(C)c3)n2)ccc1CNC(=O)c1cccn1C` [Example I-158, 1-Methyl-N-(2-methyl-4-(2-((1-methyl-1H-pyrazol-4-yl)amino)pyrimidin-4-yl)benzyl)-1H-pyrrole-2-carboxamide]: 100 to 999 nM; for `Cc1cc(-c2ccnc(N)n2)ccc1CNC(=O)C1CC2CNCC2C1` (stereo not shown) [Example I-81, N-(4-(2-aminopyrimidin-4-yl)-2-methylbenzyl)octahydrocyclopenta[c]pyrrole-5-carboxamide]: 1000 to 10000 nM.
With `Cc1cc(-c2ccnc(N)n2)ccc1CNC(=O)[C@@H]1CC[C@@H]2CNCCN2C1` [Example I-79, (7R,9aR)—N-(4-(2-aminopyrimidin-4-yl)-2-methylbenzyl)octahydro-1H-pyrido[1,2-a]pyrazine-7-carboxamide], the IC50 is 1000 to 10000 nM.
The same measure for `CC(C)(C)c1ncc(C(=O)NC2CCCc3cc(-c4cc(Nc5cn[nH]c5)ncn4)ccc32)s1` (stereo not shown) [Example I-93, N-(6-(6-((1H-pyrazol-4-yl)amino)pyrimidin-4-yl)-1,2,3,4-tetrahydronaphthalen-1-yl)-2-(tert-butyl)thiazole-5-carboxamide]: 10 to 99 nM; for `Cc1cc(-c2cc(Nc3cc4n(n3)CCCNC4)ncn2)ccc1CNC(=O)c1cnc(C(C)(C)C)s1` [Example I-148, 2-(tert-butyl)-N-(2-methyl-4-(6-((5,6,7,8-tetrahydro-4H-pyrazolo[1,5-a][1,4]diazepin-2-yl)amino)pyrimidin-4-yl)benzyl)thiazole-5-carboxamide]: < 10 nM; for `Cn1cc(Nc2nccc(-c3ccc4c(c3)OCCC4NC(=O)c3cnc(C(C)(C)C)s3)n2)cn1` (stereo not shown) [Example I-97, 2-(tert-butyl)-N-(7-(2-((1-methyl-1H-pyrazol-4-yl)amino)pyrimidin-4-yl)chroman-4-yl)thiazole-5-carboxamide]: < 10 nM.
The same measure for `Cc1cc(-c2cc(Nc3cc4n(n3)CCCN(C(=O)OC(C)(C)C)C4)ncn2)ccc1CNC(=O)c1cnc(C(C)(C)C)s1` [Example I-149, tert-butyl 2-((6-(4-((2-(tert-butyl)thiazole-5-carboxamido)methyl)-3-methylphenyl)pyrimidin-4-yl)amino)-7,8-dihydro-4H-pyrazolo[1,5-a][1,4]diazepine-5(6H)-carboxylate]: < 10 nM; for `COC(C)c1ncc(C(=O)NCc2ccc(-c3ccnc(N)n3)cc2C)s1` (stereo not shown) [Example I-87, N-(4-(2-aminopyrimidin-4-yl)-2-methylbenzyl)-2-(1-methoxyethyl)thiazole-5-carboxamide]: 100 to 999 nM.
As for `Cc1cc(-c2ccnc(Nc3cnn(C)c3)n2)ccc1CNC(=O)N1CC(OC(C)(C)C)C1` [Example I-152, 3-(tert-butoxy)-N-(2-methyl-4-(2-((1-methyl-1H-pyrazol-4-yl)amino)pyrimidin-4-yl)benzyl)azetidine-1-carboxamide], the 50% inhibitory concentration (IC50) was < 10 nM.
